We go through two compounds from patent US12600705B2, “Heat shock protein modulators and anti-Huntington disease therapeutic agents” (UNIVERSITY OF PITTSBURGH-OF THE COMMONWEALTH SYSTEM OF …, priority 2020, dated 2026).

Test [1] has as its target HDAC 4 human recombinant enzyme (Homo sapiens, UniProt P56524). Nature of the test: HDAC 4 assay (BPS Bioscience kit). The settings on record: Compound tested at 1 uM.
Description: (§1) For HDAC 4-8 assays, kits from BPS Bioscience (https://bpsbioscience.com/) were used and their recommended protocols followed. […] Each compound was dissolved in DMSO to generate a 100 μM stock solution, then diluted using HPLC-grade water to prepare 10 μM, 2 μM, and 1 μM solutions. These solutions were used for the assays. […] Assays utilized a BioTek Synergy H1 microplate reader and black Nunc MicroWell 96-well optical-bottom plates with polymer base.
(§2) HDAC 4 (and, by analogy, HDAC 5, 6, 7, and 8): 40 μL of the parent solution was added to each well on the plate. The parent solution was prepared from a fluorogenic HDAC substrate, a 1 mg/mL solution of bovine serum albumin (BSA) in water, and HDAC assay buffer. 5 μL of the inhibitor buffer (10% DMSO in water) was added to the wells designated as “Blank” and “Positive Control” (no inhibitor). 5 μL of the test compound was added to each well designated as “Test Inhibitor”. Different concentrations of TSA (for a standard curve) was added to each well designated as “Standard.” 5 μL of HDAC assay buffer was added to the “Blank” wells. […] Afterwards, the plate was analyzed using a BioTek Synergy H1 microplate reader, taking two independent readings per well that were subsequently averaged.
Test [2] has as its target HDAC 5 (Homo sapiens, UniProt Q9UQL6). In words: HDAC 5 assay (BPS Bioscience kit).
Description: as §1, §2
Test [3] relates to HEK293 cells that express an HTT exon containing 17 glutamine repeats (HTT17Q-mCherry). Nature of the test: Huntington's Disease (HD) model: protein aggregates (puncta) per cell in HEK293H cells transfected with HTT17Q-mCherry. The settings on record: for Effect on aggregate suppression compared to the MAL1-271 positive control: Example 1, FIG. 2, 10 μM compound, 6 h; for Activity in cell based HD assay (active analogs of Hsp70 agonist): summary of Example 1.
Description: Cells were stained for confocal microscope imaging with 4′,6-diamidino-2-phenylindole (DAPI), a fluorescent dye with high affinity to adenine-thymine rich DNA regions. A bright spot detection tool was used to identify and quantify the number of protein aggregates (“dots”) per cell.
Biological Assays: For HD assays, HEK293H cells were grown in DMEM (Sigma-Aldrich, Saint Louis, MO) supplemented with 10% fetal bovine serum (GE Healthcare Hyclone) and 1% penicillin/streptomycin (Thermo Fisher Scientific, Waltham, MA) at 37° C. and at a 5% CO2 atmosphere. Cells were seeded at 250,000 cells/plate in Poly-D-Lysine Coated 35 mm MatTek dishes (P35GC-1.5-10-C, MatTek Corporation, Ashland, MA). After 24 h growth, a total of 4 μg of mCherry tagged-polyglutamine-expanded (17-polyQ-expanded) huntingtin (HTT) was introduced using Lipofectamine 2000 (Invitrogen, Thermo Fisher Scientific) according to the manufacturer's instructions. […] The following day, cells were treated with vehicle (DMSO) as control or with 10 μM of the examined compounds for 6 h. The cells were then washed with PBS and fixed in 4% formaldehyde for 15 min at room temperature. Finally, cells were stained with DAPI (1:250 in PBS) for 4 h and maintained in PBS for confocal microscope imaging.
Complete volumes of cells were acquired at 0.5-μm steps, and volumes were reconstructed and analyzed using Nikon's NIS-Elements software (Nikon Instrument, Melville, NY). Bright spot detection tool was used to identify and quantify the number of protein aggregates (“dots”) per cell. A non-parametric Kruskal-Wallis test analysis was performed using Prism software (GraphPad, La Jolla, CA). Statistically significant differences between control (DMSO) and compound treated samples are indicated by asterisks in figure. To obtain representative images from this experiment, maximum intensity projections of 0.5-μm steps though the entire cell were generated using Nikon's NIS-Elements software.
Cells were stained for confocal microscope imaging with 4′,6-diamidino-2-phenylindole (DAPI) and bright spot detection tool was used to identify and quantify the number of protein aggregates (“dots”) per cell.

Test [4] has as its system HDAC 1-3. In words: HDAC 1-3 assay (BioVision kit, HeLa nuclear extract). The settings on record: Compound tested at 1 uM.
Description: For HDAC 1-3 assays, kits from BioVision Incorporated (https://www.biovision.com/) were used and their recommended protocols followed. […] Each compound was dissolved in DMSO to generate a 100 μM stock solution, then diluted using HPLC-grade water to prepare 10 μM, 2 μM, and 1 μM solutions. These solutions were used for the assays. […] Assays utilized a BioTek Synergy H1 microplate reader and black Nunc MicroWell 96-well optical-bottom plates with polymer base.
HDAC 1-3: 10 μL of each diluted compound (10 μM) and 40 μL of HPLC-grade water were mixed and added into a well on the plate. […] Then, 50 μL of the reaction mixture was added to each well and the solution was mixed thoroughly. The reaction mixture consisted of 500 μL of 10×HDAC Assay buffer, 100 μL of HeLa nuclear extract, 250 μL of HDAC substrate, and 1.65 mL of HPLC-grade water. The plate was then warmed in an incubator at 37° C. with a rocker platform and was incubated for 30 min. After the incubation, 10 μL of Lysine Developer solution was added to each well. The plate was kept in the incubator for an additional 30 min. Afterwards, the plate was analyzed using a BioTek Synergy H1 microplate reader, taking two independent readings per well that were subsequently averaged.
The target of test [5] is T1, HDAC 6 (Homo sapiens, UniProt Q9UBN7).
T1 sequence (Q9UBN7 1-1215): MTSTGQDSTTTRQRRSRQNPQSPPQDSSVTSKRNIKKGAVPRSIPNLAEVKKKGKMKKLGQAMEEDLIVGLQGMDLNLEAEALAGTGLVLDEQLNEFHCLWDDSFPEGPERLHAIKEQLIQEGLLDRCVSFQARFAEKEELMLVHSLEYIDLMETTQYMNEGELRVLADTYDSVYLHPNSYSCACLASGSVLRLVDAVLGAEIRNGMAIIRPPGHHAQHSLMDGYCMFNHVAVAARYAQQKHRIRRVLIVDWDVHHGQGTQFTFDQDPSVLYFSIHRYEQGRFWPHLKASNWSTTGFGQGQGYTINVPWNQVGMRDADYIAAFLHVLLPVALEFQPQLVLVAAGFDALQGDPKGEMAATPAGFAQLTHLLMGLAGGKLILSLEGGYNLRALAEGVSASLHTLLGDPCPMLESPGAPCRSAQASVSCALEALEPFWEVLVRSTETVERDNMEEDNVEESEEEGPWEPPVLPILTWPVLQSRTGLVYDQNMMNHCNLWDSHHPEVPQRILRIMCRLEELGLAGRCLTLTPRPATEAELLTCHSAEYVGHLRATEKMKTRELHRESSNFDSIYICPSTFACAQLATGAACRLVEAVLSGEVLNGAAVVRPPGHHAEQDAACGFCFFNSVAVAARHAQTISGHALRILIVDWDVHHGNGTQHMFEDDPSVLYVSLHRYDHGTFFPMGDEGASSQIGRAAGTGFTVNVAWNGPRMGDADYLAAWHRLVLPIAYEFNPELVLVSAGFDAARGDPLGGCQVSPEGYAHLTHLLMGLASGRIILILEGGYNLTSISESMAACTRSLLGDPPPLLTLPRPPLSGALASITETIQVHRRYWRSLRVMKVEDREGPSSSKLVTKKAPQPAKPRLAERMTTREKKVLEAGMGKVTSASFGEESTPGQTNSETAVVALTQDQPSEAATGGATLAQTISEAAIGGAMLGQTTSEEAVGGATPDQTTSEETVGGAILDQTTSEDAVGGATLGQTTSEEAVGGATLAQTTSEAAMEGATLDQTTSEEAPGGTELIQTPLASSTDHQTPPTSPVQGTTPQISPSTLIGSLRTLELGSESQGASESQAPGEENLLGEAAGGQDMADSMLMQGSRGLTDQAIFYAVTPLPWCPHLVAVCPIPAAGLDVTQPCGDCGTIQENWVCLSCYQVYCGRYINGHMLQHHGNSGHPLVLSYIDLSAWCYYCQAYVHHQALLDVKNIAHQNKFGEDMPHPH
In words: HDAC 6 assay (BPS Bioscience kit). The settings on record: footnotes b,c: tested at 200 nM; 100 nM; variable, average of 2 independent measurements.
Description: as §1
(§3) HDAC 4 (and, by analogy, HDAC 5, 6, 7, and 8): 40 μL of the parent solution was added to each well on the plate. The parent solution was prepared from a fluorogenic HDAC substrate, a 1 mg/mL solution of bovine serum albumin (BSA) in water, and HDAC assay buffer. 5 μL of the inhibitor buffer (10% DMSO in water) was added to the wells designated as “Blank” and “Positive Control” (no inhibitor). 5 μL of the test compound was added to each well designated as “Test Inhibitor”. Different concentrations of TSA (for a standard curve) was added to each well designated as “Standard.” 5 μL of HDAC assay buffer was added to the “Blank” wells. Then, 5 μL of HDAC 4 human recombinant enzyme was added to the wells designated as “Positive Control”, “Test Inhibitor”, and “Standard.” The plate was then warmed in an incubator at 37° C. with a rocker platform for 30 min After the incubation, 50 μL of 2×HDAC Developer solution was added to each well. The plate was returned to the incubator and was shaken on the rocker for an additional 15 min. at room temperature. Afterwards, the plate was analyzed using a BioTek Synergy H1 microplate reader, taking two independent readings per well that were subsequently averaged.

In test [6] the target is T2, HDAC 7 (Homo sapiens, UniProt Q8WUI4).
T2 sequence (Q8WUI4 1-952): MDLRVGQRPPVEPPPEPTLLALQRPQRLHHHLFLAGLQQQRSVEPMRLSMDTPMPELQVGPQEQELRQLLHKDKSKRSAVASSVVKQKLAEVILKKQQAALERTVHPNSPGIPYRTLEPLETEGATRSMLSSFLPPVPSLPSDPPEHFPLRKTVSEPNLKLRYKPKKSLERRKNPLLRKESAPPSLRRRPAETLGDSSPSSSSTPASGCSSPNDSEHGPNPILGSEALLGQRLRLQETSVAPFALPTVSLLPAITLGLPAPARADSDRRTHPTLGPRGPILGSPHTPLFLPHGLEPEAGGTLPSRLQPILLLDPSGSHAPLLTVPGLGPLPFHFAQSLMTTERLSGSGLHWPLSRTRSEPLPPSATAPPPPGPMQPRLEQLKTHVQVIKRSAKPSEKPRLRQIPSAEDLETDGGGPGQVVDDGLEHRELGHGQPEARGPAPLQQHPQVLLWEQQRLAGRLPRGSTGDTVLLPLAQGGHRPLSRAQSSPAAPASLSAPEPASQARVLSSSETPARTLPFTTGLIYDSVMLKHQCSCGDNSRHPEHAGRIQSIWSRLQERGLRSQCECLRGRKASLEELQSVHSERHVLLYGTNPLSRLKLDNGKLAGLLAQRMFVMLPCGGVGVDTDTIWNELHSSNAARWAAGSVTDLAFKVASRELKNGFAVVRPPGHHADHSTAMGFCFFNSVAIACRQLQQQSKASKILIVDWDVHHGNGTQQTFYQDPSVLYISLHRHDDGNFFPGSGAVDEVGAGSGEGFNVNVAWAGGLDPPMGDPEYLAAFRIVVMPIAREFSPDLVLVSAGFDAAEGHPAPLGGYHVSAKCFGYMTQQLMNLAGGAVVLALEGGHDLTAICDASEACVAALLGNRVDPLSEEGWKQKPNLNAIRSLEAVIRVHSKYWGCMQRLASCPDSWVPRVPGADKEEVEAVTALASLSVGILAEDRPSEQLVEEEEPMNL
Nature of the test: HDAC 7 assay (BPS Bioscience kit).
Description: as §1, §2

For test [7], the target named is T3, HDAC 8 (Homo sapiens, UniProt Q9BY41).
T3 sequence (Q9BY41 1-377): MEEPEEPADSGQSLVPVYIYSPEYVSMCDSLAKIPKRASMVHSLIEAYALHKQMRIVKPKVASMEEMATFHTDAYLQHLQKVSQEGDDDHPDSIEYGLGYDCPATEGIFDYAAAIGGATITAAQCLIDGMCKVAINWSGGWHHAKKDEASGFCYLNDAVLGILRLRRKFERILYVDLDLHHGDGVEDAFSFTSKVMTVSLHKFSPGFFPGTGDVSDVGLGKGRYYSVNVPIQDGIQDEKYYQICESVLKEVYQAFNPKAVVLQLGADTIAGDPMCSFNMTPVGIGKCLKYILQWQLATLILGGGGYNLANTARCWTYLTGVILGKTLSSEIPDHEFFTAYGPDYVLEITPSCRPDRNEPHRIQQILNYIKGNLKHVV
Nature of the test: HDAC 8 assay (BPS Bioscience kit). The settings on record: footnotes a,c: tested at 1 uM; 100 nM; average of 2 independent measurements.
Description: as §1, §3

Sequence of HDAC 5 (Q9UQL6 whole entry): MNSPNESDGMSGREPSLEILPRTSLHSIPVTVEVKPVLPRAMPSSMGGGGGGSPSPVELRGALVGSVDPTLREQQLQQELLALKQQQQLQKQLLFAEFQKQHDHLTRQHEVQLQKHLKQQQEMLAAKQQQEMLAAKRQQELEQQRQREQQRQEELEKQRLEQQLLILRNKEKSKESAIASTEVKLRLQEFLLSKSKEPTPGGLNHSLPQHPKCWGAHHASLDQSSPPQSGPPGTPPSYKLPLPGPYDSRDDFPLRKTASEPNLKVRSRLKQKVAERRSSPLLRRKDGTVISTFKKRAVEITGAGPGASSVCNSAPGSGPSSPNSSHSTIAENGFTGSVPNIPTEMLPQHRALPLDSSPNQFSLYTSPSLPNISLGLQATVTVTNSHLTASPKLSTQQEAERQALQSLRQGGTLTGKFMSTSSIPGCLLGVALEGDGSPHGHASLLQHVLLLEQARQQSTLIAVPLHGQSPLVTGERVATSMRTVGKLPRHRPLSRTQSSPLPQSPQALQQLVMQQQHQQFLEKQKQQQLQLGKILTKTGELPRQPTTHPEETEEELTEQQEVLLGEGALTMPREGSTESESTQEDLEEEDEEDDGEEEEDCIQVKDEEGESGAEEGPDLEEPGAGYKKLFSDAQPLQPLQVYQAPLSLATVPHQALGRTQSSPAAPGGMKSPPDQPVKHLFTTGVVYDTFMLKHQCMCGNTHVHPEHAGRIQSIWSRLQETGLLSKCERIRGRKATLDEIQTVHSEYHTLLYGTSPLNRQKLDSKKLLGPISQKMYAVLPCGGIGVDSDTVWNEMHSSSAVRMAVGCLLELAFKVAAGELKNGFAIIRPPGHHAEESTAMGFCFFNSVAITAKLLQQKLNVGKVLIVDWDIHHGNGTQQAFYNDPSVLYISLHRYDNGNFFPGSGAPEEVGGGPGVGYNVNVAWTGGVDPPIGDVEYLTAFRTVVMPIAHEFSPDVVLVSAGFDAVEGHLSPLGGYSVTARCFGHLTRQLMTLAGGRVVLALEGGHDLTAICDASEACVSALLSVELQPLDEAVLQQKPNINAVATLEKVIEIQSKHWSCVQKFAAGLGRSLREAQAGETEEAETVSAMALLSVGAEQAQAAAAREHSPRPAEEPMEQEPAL
Sequence of HDAC 4 human recombinant enzyme (P56524 whole entry): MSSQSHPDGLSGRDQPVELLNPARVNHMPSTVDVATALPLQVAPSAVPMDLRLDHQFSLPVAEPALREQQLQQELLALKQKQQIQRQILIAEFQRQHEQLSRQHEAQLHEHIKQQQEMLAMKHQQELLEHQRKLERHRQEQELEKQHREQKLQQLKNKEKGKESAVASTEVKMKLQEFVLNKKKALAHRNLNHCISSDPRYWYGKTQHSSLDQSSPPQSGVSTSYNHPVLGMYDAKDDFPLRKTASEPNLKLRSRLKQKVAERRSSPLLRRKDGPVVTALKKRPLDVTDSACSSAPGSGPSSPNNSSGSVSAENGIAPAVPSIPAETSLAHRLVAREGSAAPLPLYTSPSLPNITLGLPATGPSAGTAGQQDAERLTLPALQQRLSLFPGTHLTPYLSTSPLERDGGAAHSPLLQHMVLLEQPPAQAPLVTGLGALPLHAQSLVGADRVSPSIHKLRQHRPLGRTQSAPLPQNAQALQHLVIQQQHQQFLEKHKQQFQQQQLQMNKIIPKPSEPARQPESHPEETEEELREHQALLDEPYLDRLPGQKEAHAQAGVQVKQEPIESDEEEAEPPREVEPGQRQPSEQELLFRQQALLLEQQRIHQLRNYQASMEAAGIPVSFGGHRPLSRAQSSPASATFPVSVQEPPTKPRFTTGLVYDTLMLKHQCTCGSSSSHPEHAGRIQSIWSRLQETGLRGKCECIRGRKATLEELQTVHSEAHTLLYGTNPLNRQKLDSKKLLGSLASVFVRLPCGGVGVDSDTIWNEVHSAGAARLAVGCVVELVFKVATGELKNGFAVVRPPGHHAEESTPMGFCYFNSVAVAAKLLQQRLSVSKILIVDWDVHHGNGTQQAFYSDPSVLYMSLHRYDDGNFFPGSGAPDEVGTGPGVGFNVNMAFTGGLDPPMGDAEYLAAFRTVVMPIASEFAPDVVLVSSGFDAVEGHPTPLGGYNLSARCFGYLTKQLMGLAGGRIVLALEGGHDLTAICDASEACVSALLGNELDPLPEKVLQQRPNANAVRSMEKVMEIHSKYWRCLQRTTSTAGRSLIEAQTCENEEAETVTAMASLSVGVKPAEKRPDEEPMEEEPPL

A word on the inhibition: it is how much of the control response was suppressed. In the case of `COC(=O)CCCN1C=C(C(=O)O)C(c2ccc(Cl)cc2Cl)NS1(=O)=O` (stereo not shown) [Compound 10g, 3-(2,4-Dichlorophenyl)-6-(4-methoxy-4-oxobutyl)-3,6-dihydro-2H-1,2,6-thiadiazine-4-carboxylic acid 1,1-dioxide], in test [1], the “Percent inhibition HDAC 4” value was “NIA”. In test [2] (Compound tested at 200 nM), the “Percent inhibition HDAC 5” value was “NIA”. In test [3], the “Effect on aggregate suppression compared to the MAL1-271 positive control” value is “equally effective” and the “Activity in cell based HD assay (active analogs of Hsp70 agonist)” value is reported as “active”. In addition, the “Percent inhibition HDAC 1-3” value in test [4] was “NIA”. For the same compound, the “Percent inhibition HDAC 6” value in test [5] is “NIA”. Moreover, the inhibition at 0.1 µM in test [6] (read-out: Percent inhibition HDAC 7) came to 1%. For the same compound, in test [7], the “Percent inhibition HDAC 8” value worked out at 60%^e.
`CCOC(=O)C1=CNS(=O)(=O)N(Cc2ccc(C(=O)O)cc2)C1c1ccc(Cl)cc1Cl` (stereo not shown) [Compound 10i, 4-((3-(2,4-Dichlorophenyl)-4-(ethoxycarbonyl)-1,1-dioxido-3,6-dihydro-2H-1,2,6-thiadiazin-2-yl)methyl)benzoic acid]: the “Percent inhibition HDAC 4” value in test [1] is on record as “NIA”. Further, in test [2] (read-out: Percent inhibition HDAC 5), the inhibition at 0.2 µM worked out at 9%. Further, in test [3], the “Effect on aggregate suppression compared to the MAL1-271 positive control” value was “equally effective” and the “Activity in cell based HD assay (active analogs of Hsp70 agonist)” value is “active”. Besides, the “Percent inhibition HDAC 1-3” value in test [4] is listed as “NIA”. For the same compound, in test [5], the “Percent inhibition HDAC 6” value is given as 40%^d. For the same compound, the “Percent inhibition HDAC 7” value in test [6] (Compound tested at 100 nM) is on record as “NIA”. Besides, the “Percent inhibition HDAC 8” value in test [7] worked out at 37%^e.
